# Assay results: BindingDB's records for doi:10.7270/Q23T9FMP (The Scripps Research Institute Molecular Screening Center, 2007)
# Target: Steroidogenic factor 1 (Homo sapiens, UniProt Q13285)
# Assay: activation of SF-1 LBD reporter – cell-based, CHO-K1, Gal4-SF-1 LBD, luciferase luminescence, dose response (AID 692)
# [1] = inactive by the depositor's call
# Chain of Steroidogenic factor 1 (Q13285 whole entry, the tested form may be a part): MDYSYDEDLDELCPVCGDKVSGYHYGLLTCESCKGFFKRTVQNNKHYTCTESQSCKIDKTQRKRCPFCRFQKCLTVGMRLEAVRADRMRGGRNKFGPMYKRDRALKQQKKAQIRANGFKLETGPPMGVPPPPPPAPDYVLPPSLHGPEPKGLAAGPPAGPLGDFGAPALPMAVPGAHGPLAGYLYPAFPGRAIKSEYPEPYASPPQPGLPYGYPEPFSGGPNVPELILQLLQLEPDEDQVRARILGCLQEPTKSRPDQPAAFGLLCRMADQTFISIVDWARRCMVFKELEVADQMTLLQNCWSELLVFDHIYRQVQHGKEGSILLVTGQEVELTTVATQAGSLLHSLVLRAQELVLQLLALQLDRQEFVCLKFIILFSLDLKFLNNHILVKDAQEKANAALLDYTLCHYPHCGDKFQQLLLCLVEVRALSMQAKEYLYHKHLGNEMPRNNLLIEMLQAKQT
SMILES,EC50,EC50 [1]
CCOC(=O)CSc1nc(-c2ccncc2)ccc1C#N [2-[(3-cyano-6-pyridin-4-yl-2-pyridinyl)thio]acetic acid ethyl ester],1620 nM,–
"c1ccc(-c2cnc(CSc3nnc4ccccn34)o2)cc1 [5-phenyl-2-([1,2,4]triazolo[4,3-a]pyridin-3-ylsulfanylmethyl)-1,3-oxazole]",957 nM,–
"OCCOCCNc1ncnc2c1cnn2-c1ccc(Cl)cc1 [2-[2-[[1-(4-chlorophenyl)-4-pyrazolo[3,4-d]pyrimidinyl]amino]ethoxy]ethanol]",434 nM,–
"COc1ccc(-c2cc(C(=O)N3CCCCC3)no2)cc1OC [1-{[5-(3,4-dimethoxyphenyl)isoxazol-3-yl]carbonyl}piperidine]",3840 nM,–
COc1cccc2c(O)c(C(=O)NCc3cccs3)cnc12 [4-Hydroxy-8-methoxy-quinoline-3-carboxylic acid (thiophen-2-ylmethyl)-amide],6650 nM,–
"COCC(C)NC(=O)c1noc2c1CCc1cc(OC)ccc1-2 (stereo not given) [7-methoxy-N-(1-methoxypropan-2-yl)-4,5-dihydrobenzo[g][1,2]benzoxazole-3-carboxamide]",> 1220 nM,–
"CC(C)(CC(=O)O)Cc1nc(-c2ccc(Cl)cc2)no1 [4-[3-(4-chlorophenyl)-1,2,4-oxadiazol-5-yl]-3,3-dimethyl-butanoic acid]",> 11000 nM,–
CC(=O)c1c(C)[nH]c(C(=O)Nc2ccc3c(c2)OCCO3)c1C,466 nM,–
"CCOC(=O)CSc1nc(-c2ccc3c(c2)OCO3)ccc1C#N [2-[[6-(1,3-benzodioxol-5-yl)-3-cyano-2-pyridinyl]thio]acetic acid ethyl ester]",> 3670 nM,–
COc1ccc(CNC(=O)NC2CCCCC2)cc1 [1-cyclohexyl-3-[(4-methoxyphenyl)methyl]urea],> 11000 nM,–
"COc1ccc2nc(Nc3nc(C)c(C(C)=O)s3)sc2c1 [1-[2-[(6-methoxy-1,3-benzothiazol-2-yl)amino]-4-methyl-1,3-thiazol-5-yl]ethanone]",572 nM,–
COc1ccccc1Nc1nc2ccccc2[nH]1 [N-(2-methoxyphenyl)-1H-benzimidazol-2-amine],6470 nM,–
"c1ccc2nc3c(nc2c1)c1ccccc1n3CCN1CCOCC1 [4-(2-indolo[3,2-b]quinoxalin-6-ylethyl)morpholine]",> 11000 nM,–
"COCCn1c(C)cc(C(=O)COC(=O)C23CC4CC(CC(O)(C4)C2)C3)c1C [[2-[1-(2-methoxyethyl)-2,5-dimethylpyrrol-3-yl]-2-oxoethyl] 3-hydroxyadamantane-1-carboxylate]",813 nM,–
"O=C(COc1ncnc2ccccc12)c1ccc2c(c1)OCCO2 [1-(2,3-dihydro-1,4-benzodioxin-6-yl)-2-(4-quinazolinyloxy)ethanone]",396 nM,–
CC(=Nc1cccc(O)c1)c1sc2ccccc2c1O [(2Z)-2-[1-(3-hydroxyanilino)ethylidene]-1-benzothiophen-3-one],4470 nM,–
N#CCc1ccc(NC(=O)Nc2cccc(Cl)c2)cc1 [1-(3-chlorophenyl)-3-[4-(cyanomethyl)phenyl]urea],2430 nM,–
"CCOC(=O)c1cnc2c(-c3ccccc3)cnn2c1N [7-amino-3-phenyl-6-pyrazolo[1,5-a]pyrimidinecarboxylic acid ethyl ester]",183 nM,–
"COc1cccc(C(=O)Nc2cccc(-c3nnc(-c4ccccc4)o3)c2)c1 [3-methoxy-N-[3-(5-phenyl-1,3,4-oxadiazol-2-yl)phenyl]benzamide]",> 1220 nM,–
"COc1ccc(OC)c2sc(NC(=O)c3ccc(Br)s3)nc12 [5-bromanyl-N-(4,7-dimethoxy-1,3-benzothiazol-2-yl)thiophene-2-carboxamide]",> 99000 nM,–
"COc1ccc2c(c1)CCc1c(C(=O)N3CCCCCC3)noc1-2 [1-azepanyl-(7-methoxy-4,5-dihydrobenzo[g][1,2]benzoxazol-3-yl)methanone]",1320 nM,–
"Cc1nc2sc(-c3ccccc3)cc2c(=O)n1-n1cccc1 [2-methyl-6-phenyl-3-(1-pyrrolyl)-4-thieno[2,3-d]pyrimidinone]",477 nM,–

SMILES,EC50,EC50 [1]
"CCn1c(SCC(=O)c2cccs2)nnc1-c1ccco1 [2-(4-Ethyl-5-furan-2-yl-4H-[1,2,4]triazol-3-ylsulfanyl)-1-thiophen-2-yl-ethanone]",9840 nM,–
"Cc1cccnc1Nc1nc(-c2ccc(O)cc2O)cs1 [4-[2-(3-Methyl-pyridin-2-ylamino)-thiazol-4-yl]-benzene-1,3-diol]",2270 nM,–
"COc1ccc2c(c1OC)C(=O)N1c3ccccc3SC21 (stereo not given) [1,2-dimethoxy-4bH-isoindolo[1,2-b][1,3]benzothiazol-11-one]",827 nM,–
COc1ccc(C(=O)CC=Nc2cccc(C)n2)cc1OC,401 nM,–
O=C(CSc1nc2ccccc2o1)Nc1nc2ccccc2s1 [2-(Benzooxazol-2-ylsulfanyl)-N-benzothiazol-2-yl-acetamide],> 99000 nM,–
"Clc1ccc(-n2ncc3c(NCc4ccccn4)ncnc32)cc1 [1-(4-chlorophenyl)-N-(2-pyridinylmethyl)-4-pyrazolo[3,4-d]pyrimidinamine]",2800 nM,–
CN(C)c1oc(-c2ccc(OCc3ccccc3)cc2)nc1C#N [2-(4-benzoxyphenyl)-5-(dimethylamino)oxazole-4-carbonitrile],5210 nM,–
"COc1ccc2nc3sc(C(=O)NCc4cccs4)c(N)c3cc2c1 [3-Amino-6-methoxy-thieno[2,3-b]quinoline-2-carboxylic acid (thiophen-2-ylmethyl)-amide]",403 nM,–
"COc1ccc(-c2nc3c(Br)c(N)c(Br)cc3o2)cc1 [4,6-bis(bromanyl)-2-(4-methoxyphenyl)-1,3-benzoxazol-5-amine]",825 nM,–
"CCCn1c(C)cc(C(=O)COc2ncnc3sccc23)c1C [1-(2,5-dimethyl-1-propyl-3-pyrrolyl)-2-(4-thieno[2,3-d]pyrimidinyloxy)ethanone]",585 nM,–
CCOC(=O)CSc1nc2ccccc2c(=O)n1NC(=O)c1ccccc1 [2-[(3-benzamido-4-keto-quinazolin-2-yl)thio]acetic acid ethyl ester],1360 nM,–
Fc1cnc(N2CCOCC2)nc1N1CCc2ccccc21 [1-[5-fluoro-2-(4-morpholinyl)-4-pyrimidinyl]indoline],–,13700 nM
Cc1ccc(C(=O)Nc2ncc(Cc3ccccc3)s2)o1 [5-Methyl-furan-2-carboxylic acid (5-benzyl-thiazol-2-yl)-amide],168 nM,–
"CCc1nnc(NC(=O)CSc2nc(C)c3c(c2C#N)CCCC3)s1 [2-[(4-cyano-1-methyl-5,6,7,8-tetrahydroisoquinolin-3-yl)sulfanyl]-N-(5-ethyl-1,3,4-thiadiazol-2-yl)acetamide]",1690 nM,–
"COC(=O)c1ccc(C(=O)C(C#N)c2nc3ccccc3s2)cc1 (stereo not given) [4-[(2Z)-2-(3H-1,3-benzothiazol-2-ylidene)-2-cyano-1-oxoethyl]benzoic acid methyl ester]",2710 nM,–
"Fc1ccc2nc(Nc3nc4c(s3)CCCC4)sc2c1 [(6-fluoro-1,3-benzothiazol-2-yl)-(4,5,6,7-tetrahydro-1,3-benzothiazol-2-yl)amine]",1010 nM,–
"Cc1csc2nc(CSc3nc4ccccc4o3)cn12 [2-[(3-methyl-6-imidazo[2,1-b]thiazolyl)methylthio]-1,3-benzoxazole]",> 3670 nM,–
CCc1ccc(C(=O)NCc2cccs2)s1 [5-ethyl-N-(2-thenyl)thiophene-2-carboxamide],3230 nM,–
"C=CCn1c(C)cc(C(=O)CSc2nc(O)c3ccccc3n2)c1C [2-[2-(2,5-dimethyl-1-prop-2-enyl-pyrrol-3-yl)-2-oxidanylidene-ethyl]sulfanyl-1H-quinazolin-4-one]",410 nM,–
"Cc1ccc(C2C(C(=O)c3cnn(-c4ccccc4)c3C)C(=O)C(=O)N2CCN(C)C)o1 (stereo not given) [(4E)-1-[2-(dimethylamino)ethyl]-4-[hydroxy-(5-methyl-1-phenyl-4-pyrazolyl)methylidene]-5-(5-methyl-2-furanyl)pyrrolidine-2,3-dione]",3590 nM,–
Nc1c(C(=O)NCc2ccco2)nnn1-c1ccccc1 [5-amino-N-(2-furanylmethyl)-1-phenyl-4-triazolecarboxamide],2670 nM,–

# Results, then the molecule that gave them:
EC50,EC50 [1],SMILES
> 99000 nM,–,O=C(NCC1CCCO1)c1coc2nc3ccccc3nc12 (stereo not given) [MLS000046703]
544 nM,–,CCOC(=O)c1[nH]c2ccc(C)cc2c1N [MLS000079379]
1460 nM,–,CC(=O)Nc1ccc(-c2nc3c(C)cccc3[nH]2)cc1 [SMR000001134]
7740 nM,–,CS(=O)(=O)c1ccc2nc(NC(=O)C3COc4ccccc4O3)sc2c1 (stereo not given) [MLS000056123]
> 1220 nM,–,O=C(Nc1nnc(C2CCCCC2)s1)c1ccco1 [MLS000039439]
> 407 nM,–,O=C(Nc1ccc2c(c1)OCO2)c1ccc(COc2ccc3c(c2)CCC3)o1 [MLS000048173]
2200 nM,–,CC(=O)c1cccc(NC(=O)c2cnn3ccccc23)c1 [MLS000118777]
> 11000 nM,–,CC1(C)CC(=O)C(=CNc2ccc3[nH]ncc3c2)C(=O)C1 [SMR000111453]
> 3670 nM,–,CC(=O)c1c(C)[nH]c(C(=O)NCCc2cccc(C)c2)c1C [MLS000045238]
> 11000 nM,–,CCOc1ccc(OCC)c(NC(=O)CSc2nc3c(c(=O)n(C)c(=O)n3C)n2C(C)C)c1 [MLS000072726]
760 nM,–,Nc1nc2c(s1)CCc1c-2cnn1-c1ccccc1 [MLS000085948]
2820 nM,–,CC(C)(C)c1cc(NC(=O)C2CCCO2)no1 (stereo not given) [MLS000065845]
–,12200 nM,CCOc1ccc(OCC)c(NC(=O)C2CCCN2S(=O)(=O)c2cccc3cccnc23)c1 (stereo not given) [MLS000119093]
1180 nM,–,COc1ccc(CCC(=O)Nc2ccc(-c3noc(-c4ccc(OC)c(OC)c4)n3)cc2)cc1 [MLS000049572]
4430 nM,–,CCCc1cc(C(=O)Nc2ccccc2SC)no1 [MLS000116378]
–,10100 nM,Cc1cc(C(=O)Nc2sc3c(c2C#N)CCC(C(C)(C)C)C3)no1 (stereo not given) [MLS000087312]
6660 nM,–,CN(C)C(=O)CSc1nnc(C23CC4CC(CC(C4)C2)C3)o1 [SMR000077996]
1380 nM,–,CCOC(=O)c1cc2cc(OC)ccc2[nH]1 [MLS000071430]
> 11000 nM,–,Cc1cc2n(n1)C(c1ccc(N(C)C)cc1)Nc1ccccc1-2 (stereo not given) [SMR000015202]
1220 nM,–,C=CCn1c(-c2ccccc2)c[nH]c1=S [MLS000071728]
1190 nM,–,O=C(Nc1ccc(-c2cn3ccsc3n2)cc1)C1CC1 [MLS000053249]
1920 nM,–,Cc1cnc(NC(=O)CSc2nnc(-c3ccccc3)o2)s1 [MLS000077990]
